Data from patent US5096898A, “Bile acid unsaturated derivatives and pharmaceutical compositions containing them” (Giuliani S.p.A., priority 1990, dated 1992).
Converted amounts (≈) assume the structure as drawn. “Also recorded” adds a separate entry of the source. Like-named read-outs stand apart in the source and are kept apart here.

How the values were obtained:
[1] = Physico-chemical characteristics (Table 1); format: physicochemical; parameters: Critical micellar concentration (CMC): unit not given here; settings: for chromatographic logP: c18 hplc
[2] = Effect on bile flow and bile lipid secretion; format: in vivo, rat; settings: for SMAB (maximum secretion) / SMPL (maximum bile lipid secretion) / SMVo = maximum bile flow / SMXOL (maximum bile lipid secretion): intravenous, 6 μmoles/min/kg during 1 hour (stated for TOL-UDCA)
Protocol: (§1) Trans 3α,7β-dihydroxy-5β-24-cholen-27-oic acid (TOL-UDCA) was studied compared with ursodeoxycholic acid and the glycine and taurine conjugated thereof also in the following pharmacological tests:
effects on the secretion of bile, bile acids, cholesterol and phospholipids.
(§2) TOL-UDCA was administered to rat by intravenous and intraduodenal routes at a dose of 6 μmoles/min/kg during 1 hour.
SMVo = maximum bile flow
SM = maximum bile lipid secretion

[3] = Hepatic absorption, metabolism and biliary secretion, intravenous; format: in vivo; settings: rat
Protocol: as §1
hepatic and intestinal metabolism (in vivo and in vitro)
hepatic and intestinal absorption
as §2

[4] = read-out: Retention times with C18-HPLC (K') (converted)

Row | Compound | Critical micellar concentration (CMC) [1] | chromatographic logP [1, 4] | pKa ([1]; read-out: pKa) | SMAB (maximum secretion) [2] | SMPL (maximum bile lipid secretion) [2] | SMVo = maximum bile flow [2] [mL/h/kg] | SMXOL (maximum bile lipid secretion) [2] | solubility ([1]; read-out: Solubility) [µM] | pKa [1] | solubility [1] [µM] | kinetic of recovery in the bile ([3]; intravenous, 6 μmoles/min/kg during 1 hour) | accumulation in the hepatic cells ([3]; in vivo) | disappearance from the bile ([3]; in vivo) | presence in bile 2 hours after end of infusion ([3]; in vivo) | chromatographic logP [1] | bile flow / choleretic effect (in words) ([2]; compared with UDCA natural analogs and conjugated forms)
1 | C[C@H](CCC(=O)NCCS(=O)(=O)O)[C@H]1CC[C@H]2[C@@H]3[C@@H](O)C[C@@H]4C[C@H](O)CC[C@]4(C)[C@H]3CC[C@]12C [T-UDCA] | 8 | -0.00877 | 2 | 2,40 μmol/min/kg | 0,18 μmol/min/kg | 2.1 | 0,014 μmol/min/kg |  |  |  |  |  |  |  |  | 
2 | C[C@H](CCC(=O)O)[C@H]1CC[C@H]2[C@@H]3[C@@H](O)C[C@@H]4C[C@H](O)CC[C@]4(C)[C@H]3CC[C@]12C [UDCA, ursodeoxycholic acid] | 19 | 0.563 | 5.06 | 3,02 μmol/min/kg | 0,22 μmol/min/kg | 3.6 | 0,022 μmol/min/kg | 9 (≈ 3.53 µg/mL) |  |  |  |  |  |  |  | 
3 | C[C@H](CCC(=O)NCC(=O)O)[C@H]1CC[C@H]2[C@@H]3[C@@H](O)C[C@@H]4C[C@H](O)CC[C@]4(C)[C@H]3CC[C@]12C [G-UDCA] | 12 | 0.0253 |  | 2,10 μmol/min/kg | 0,39 μmol/min/kg | 2.4 | 0,028 μmol/min/kg |  | 3.9 | 3 (≈ 1.35 µg/mL) |  |  |  |  |  | 
4 | C[C@H](CC/C=C/CC(=O)O)[C@H]1CC[C@H]2[C@@H]3[C@@H](O)C[C@@H]4C[C@H](O)CC[C@]4(C)[C@H]3CC[C@]12C [TOL-UDCA, Trans-3α,7β-dihydroxy-5β-24-cholen-27-oic acid] | 5 |  |  | 1,02 μmol/min/kg | 0,12 μmol/min/kg | 5.4 | 0,020 μmol/min/kg |  | 5.02 | 10 (≈ 4.33 µg/mL) | recovered in the bile with a slow kinetic | accumulates in the hepatic cells | disappears from the bile with a slow kinetic | a noticeable amount of this bile acid is still present 2 hours after | 0.96 | increases bile flow and this effect is stronger than the one of UDCA natural analogs and of the conjugated forms thereof; also recorded: strong choleretic effect after intravenous or intraduodenal administrations, which effect is higher than that of UDCA
